Here are results for five molecules from publication PMC12589998, “Development and validation of a UHPLC-QqQ-MS/MS method for simultaneous determination of fifteen major components from Oroxyli seed extract in rat plasma and its application in the pharmacokinetic study” (Frontiers in Pharmacology, 2025).

Series [1] is described as follows: Stability of the analytes in rat plasma samples under storage conditions. Format: physicochemical. The settings on record: n = 6. How it is done: The bioanalytical method validation was evaluated for specificity, linearity, sensitivity, precision and accuracy, recovery, matrix effect, and stability to ensure compliance with the U.S. Food and Drug Administration (FDA) guidance on precise quantitative analysis ([Center for Drug Evaluation and Research of the U.S., 2018]). The assessment of specificity was conducted by comparing the chromatograms obtained from blank plasma, blank plasma spiked with the target components, and samples gathered following the oral administration of OS extract. Calibration curves were constructed by plotting the ratio for the peak area of the analyte to IS versus the concentration, with 1/x^2 serving as the weighting factor. The lower limit of quantification (LLOQ) was defined as the concentration at which a signal to noise ratio of […] 10 was achievable. The evaluation of precision and accuracy involved the analysis of six QC samples, both within a single day and over 3 consecutive days. Accuracy was expressed as the relative error (RE), whereas precision was gauged via relative standard deviation (RSD). Extraction recovery was ascertained by juxtaposing the responses of analytes in extracted samples against those in samples that were spiked post-extraction. The matrix effect was scrutinized by determining the ratio of the responses of the analytes in post-extraction spiked samples to those in the mixed standard solution. The stability of the analytes in plasma samples was explored under diverse conditions: encompassing a 12-h period in an autosampler, a 4-h interval at room temperature, three cycles of freezing–thawing, and a 7-day duration at −80 °C.
The retention times of the analyte peaks were consistent with those in the spiked samples. […] The LLOQs for chrysin, chrysin-7-O-β-D-glucuronide, hispidulin, wogonoside, quercetin, quercetin-7-O-β-D-glucoside, baicalin, baicalein, acacetin, oroxin A, oroxin B, oroxylin A, oroxylin A-7-O-β-D-glucuronide, apigenin, and scutellarein were 1.0, 2.0, 1.0, 0.3, 1.0, 0.1, 9.0, 6.0, 0.3, 6.0, 4.0, 1.0, 2.0, 0.5, and 0.3 ng/mL, respectively. In Supplementary Table S2, the RE for accuracy is between −13.77% and 12.55%, and the RSD for precision is below 14.55% (both intra- and inter-day). […] The matrix effect varied from 60.15% to 115.53%, with RSD values below 10.54%. In Supplementary Table S4, the RSD values for stability of the analytes are found to be lower than 13.98%, meaning that these components were stable under the following conditions: encompassing a 12-h period in an autosampler, a 4-h interval at room temperature, three cycles of freezing and thawing, and a 7-day duration at −80 °C.

Series [2] in a line: Pharmacokinetic study in rats after oral administration of OS extract (UHPLC-QqQ-MS/MS of plasma). The settings on record: for concentration at 0.5 h / AUC(0-t) / AUC(0-inf) / Cmax / half-life / Tmax: male; for concentration at 0.5 h: SD, 3 g/kg, rat plasma collected 0.5 h after oral administration of the OS extract, read-out: Concentration printed in MRM chromatogram of plasma sample (Figure 2C); for Plasma levels: rat plasma after oral OS extract; for AUC(0-t) / AUC(0-inf) / Cmax / half-life / Tmax: rat plasma, oral 3 g/kg OS extract, n = 6, mean ± SD; for AUC(0-t): read-out: AUC(0-t); for AUC(0-inf): read-out: AUC(0-∞); for Cmax: read-out: Cmax; for half-life: read-out: T1/2 (converted); for Tmax: read-out: Tmax. In kind it is in vivo, rat. On the procedure: The UHPLC-QqQ-MS/MS system consisted of a 1290 UHPLC and a 6470 mass spectrometer (Agilent Technologies). Chromatographic separation was realized on utilizing an ACQUITY UPLC BEH C18 column (2.1 × 100 mm, 1.7 μm) maintained at 35 °C. The mobile phase consisting of 0.1% formic acid in water (A) and acetonitrile (B) was utilized with the elution program set at 0 min–1 min, 5% B–30% B; 1 min–4 min, 30% B– 50% B; 4 min–8 min, and 50% B–90% B. The injection volume was 5 μL, and the flow rate was 0.3 mL/min. The mass spectrometry parameters in the negative ion mode, gas temperature, flow rate, and nebulizer pressure were 300 °C, 7 L/min, and 35 psi, respectively. The mass spectra properties of the 15 analytes and the IS are illustrated in Table 1.
To 100 μL of the plasma sample, 20 μL of methanol, 20 μL of IS solution (methylparaben, 1 μg/mL), and 5 μL of formic acid were added and vortexed for a duration of 2 min. Subsequently, the mixture underwent extraction with 800 μL of acetonitrile for 3 min. Following 10 min of centrifugation at 12,000 g, the supernatant was collected and evaporated to dryness under N2 to obtain the residue. Finally, the residue was reconstituted in 50% methanol (100 μL) and utilized for analysis.
Before initiating the study, six male SD rats underwent a 12-h fasting period, during which they were granted unrestricted access to water. Then, the rats were administered an oral dose of 3 g/kg of the OS extract, which had been dissolved in 0.5% CMC-Na aqueous solution. Blood samples, approximately 200 μL each, were collected at various time points: before administration and at 0.03, 0.08, 0.17, 0.25, 0.5, 0.75, 1, 2, 4, 6, 8, 10, 12, 24, 36, and 48 h post-administration. Following 10 min of centrifugation at 6,000 g, the resultant samples were stored at −80 °C.
The developed method was effectively applied to study the pharmacokinetics in rats following oral administration of the OS extract. […] This was likely due to their low concentrations in the OS extract. Ultimately, nine components (chrysin, chrysin-7-O-β-D-glucuronide, baicalin, baicalein, oroxin A, oroxin B, oroxylin A, oroxylin A-7-O-β-D-glucuronide, and scutellarein) were successfully fitted with pharmacokinetic parameters. The average plasma concentration–time profiles of these substances are depicted in Figure 3. […] All data were presented as the mean ± standard deviation (Mean ± SD).

Where [3] appears, read: spiked concentration 6400 ng/mL.

As to `COc1ccc(-c2cc(=O)c3c(O)cc(O)cc3o2)cc1` [Acacetin, acacetin], in series [1] (spiked concentration 2 ng/mL), the “Measured, -80°C for 7 days” value was determined as 1.78 ± 0.11 ng/mL; the “Measured, Autosampler for 12 h” value is listed as 1.78 ± 0.15 ng/mL; the “Measured, Room temperature for 4 h” value worked out at 2.20 ± 0.04 ng/mL; the “Measured, Three freeze-thaw cycles” value was 1.81 ± 0.06 ng/mL. For the same molecule, in series [1] (spiked concentration 20 ng/mL), the “Measured, -80°C for 7 days” value was 17.78 ± 0.87 ng/mL; the “Measured, Autosampler for 12 h” value was found to be 22.01 ± 1.07 ng/mL; the “Measured, Room temperature for 4 h” value came to 21.25 ± 1.13 ng/mL; the “Measured, Three freeze-thaw cycles” value is listed as 17.60 ± 1.24 ng/mL. For the same molecule, in series [1] (spiked concentration 320 ng/mL), the “Measured, -80°C for 7 days” value stood at 284.83 ± 15.85 ng/mL; the “Measured, Autosampler for 12 h” value was 317.16 ± 38.69 ng/mL; the “Measured, Room temperature for 4 h” value is given as 313.68 ± 7.94 ng/mL; the “Measured, Three freeze-thaw cycles” value is recorded as 282.90 ± 15.75 ng/mL. In series [2], the concentration at 0.5 h was 8 ng/mL and the Plasma levels entry is recorded as “too weak to obtain comprehensive pharmacokinetic curves”.

As to `O=c1c(O)c(-c2ccc(O)c(O)c2)oc2cc(O[C@@H]3O[C@H](CO)[C@@H](O)[C@H](O)[C@H]3O)cc(O)c12` [Quercetin-7-O-β-D-glucoside, quercetin-7-O-β-D-glucoside], in series [1] (spiked concentration 2 ng/mL), the “Measured, -80°C for 7 days” value is reported as 1.96 ± 0.23 ng/mL; the “Measured, Autosampler for 12 h” value stood at 2.10 ± 0.15 ng/mL; the “Measured, Room temperature for 4 h” value amounted to 1.98 ± 0.24 ng/mL; the “Measured, Three freeze-thaw cycles” value was found to be 2.03 ± 0.10 ng/mL. In addition, in series [1] (spiked concentration 20 ng/mL), the “Measured, -80°C for 7 days” value was 19.58 ± 0.68 ng/mL; the “Measured, Autosampler for 12 h” value was found to be 19.79 ± 2.27 ng/mL; the “Measured, Room temperature for 4 h” value is on record as 20.28 ± 1.69 ng/mL; the “Measured, Three freeze-thaw cycles” value was 17.78 ± 1.17 ng/mL. In addition, in series [1] (spiked concentration 320 ng/mL), the “Measured, -80°C for 7 days” value was determined as 296.81 ± 20.76 ng/mL; the “Measured, Autosampler for 12 h” value is 320.27 ± 20.06 ng/mL; the “Measured, Room temperature for 4 h” value worked out at 315.81 ± 25.77 ng/mL; the “Measured, Three freeze-thaw cycles” value is 326.98 ± 27.26 ng/mL. Also, in series [2], the concentration at 0.5 h amounted to 8 ng/mL and the Plasma levels result is listed as “too weak to obtain comprehensive pharmacokinetic curves”.

As for `O=c1cc(-c2ccccc2)oc2cc(O[C@@H]3O[C@H](CO[C@@H]4O[C@H](CO)[C@@H](O)[C@H](O)[C@H]4O)[C@@H](O)[C@H](O)[C@H]3O)c(O)c(O)c12` [Oroxin B, oroxin B], in series [1] (spiked concentration 40 ng/mL), the “Measured, -80°C for 7 days” value was 37.76 ± 3.31 ng/mL; the “Measured, Autosampler for 12 h” value is on record as 39.10 ± 2.32 ng/mL; the “Measured, Room temperature for 4 h” value amounted to 41.95 ± 3.13 ng/mL; the “Measured, Three freeze-thaw cycles” value came out at 38.40 ± 1.50 ng/mL. For the same molecule, in series [1] (spiked concentration 400 ng/mL), the “Measured, -80°C for 7 days” value is listed as 393.06 ± 24.72 ng/mL; the “Measured, Autosampler for 12 h” value is listed as 436.20 ± 27.56 ng/mL; the “Measured, Room temperature for 4 h” value was determined as 430.23 ± 11.61 ng/mL; the “Measured, Three freeze-thaw cycles” value stood at 392.81 ± 19.18 ng/mL. Further, in series [1] (setting [3]), the “Measured, -80°C for 7 days” value is on record as 5937.71 ± 352.01 ng/mL; the “Measured, Autosampler for 12 h” value is recorded as 6506.73 ± 286.20 ng/mL; the “Measured, Room temperature for 4 h” value worked out at 6564.94 ± 412.78 ng/mL; the “Measured, Three freeze-thaw cycles” value amounted to 6068.65 ± 216.91 ng/mL. Besides, in series [2], the concentration at 0.5 h came out at 1130 ng/mL, the AUC(0-t) amounted to 2120 ng·h/mL, the AUC(0-inf) is 2230 ng·h/mL and the Cmax was 1990 ng/mL. In series [2], the half-life is 3.97 ± 1.37 h and the Tmax came to 0.22 ± 0.04 h.

Take `O=c1cc(-c2ccc(O)cc2)oc2cc(O)c(O)c(O)c12` [Scutellarein, scutellarein]: in series [1] (spiked concentration 2 ng/mL), the “Measured, -80°C for 7 days” value was determined as 1.77 ± 0.12 ng/mL; the “Measured, Autosampler for 12 h” value was found to be 2.05 ± 0.22 ng/mL; the “Measured, Room temperature for 4 h” value is 1.84 ± 0.17 ng/mL; the “Measured, Three freeze-thaw cycles” value is recorded as 1.78 ± 0.13 ng/mL. For the same molecule, in series [1] (spiked concentration 20 ng/mL), the “Measured, -80°C for 7 days” value was 19.80 ± 0.92 ng/mL; the “Measured, Autosampler for 12 h” value came to 19.68 ± 1.68 ng/mL; the “Measured, Room temperature for 4 h” value is 18.12 ± 0.51 ng/mL; the “Measured, Three freeze-thaw cycles” value stood at 21.33 ± 0.83 ng/mL. Moreover, in series [1] (spiked concentration 320 ng/mL), the “Measured, -80°C for 7 days” value was found to be 296.10 ± 18.07 ng/mL; the “Measured, Autosampler for 12 h” value is 327.40 ± 16.47 ng/mL; the “Measured, Room temperature for 4 h” value is 316.24 ± 35.36 ng/mL; the “Measured, Three freeze-thaw cycles” value came to 292.73 ± 17.80 ng/mL. Besides, in series [2], the concentration at 0.5 h was determined as 14 ng/mL, the AUC(0-t) turned out to be 89.4 ± 18.5 ng·h/mL, the AUC(0-inf) was 95.6 ± 17.5 ng·h/mL and the Cmax was determined as 47.8 ± 15.1 ng/mL. In series [2], the half-life is 4.07 ± 1.61 h and the Tmax was determined as 0.1 ± 0.04 h.

As to `O=c1cc(-c2ccccc2)oc2cc(O[C@@H]3O[C@H](CO)[C@@H](O)[C@H](O)[C@H]3O)c(O)c(O)c12` [Oroxin A, oroxin A], in series [1] (spiked concentration 40 ng/mL), the “Measured, -80°C for 7 days” value is listed as 41.12 ± 0.77 ng/mL; the “Measured, Autosampler for 12 h” value turned out to be 39.49 ± 3.13 ng/mL; the “Measured, Room temperature for 4 h” value is 38.81 ± 2.31 ng/mL; the “Measured, Three freeze-thaw cycles” value came to 39.17 ± 2.11 ng/mL. Besides, in series [1] (spiked concentration 400 ng/mL), the “Measured, -80°C for 7 days” value is given as 385.78 ± 15.57 ng/mL; the “Measured, Autosampler for 12 h” value is given as 419.46 ± 28.69 ng/mL; the “Measured, Room temperature for 4 h” value is given as 388.37 ± 19.15 ng/mL; the “Measured, Three freeze-thaw cycles” value was 395.82 ± 21.75 ng/mL. For the same molecule, in series [1] (setting [3]), the “Measured, -80°C for 7 days” value amounted to 6200.94 ± 362.67 ng/mL; the “Measured, Autosampler for 12 h” value stood at 6572.01 ± 389.34 ng/mL; the “Measured, Room temperature for 4 h” value is on record as 6516.27 ± 414.24 ng/mL; the “Measured, Three freeze-thaw cycles” value is 6021.13 ± 378.88 ng/mL. In addition, in series [2], the concentration at 0.5 h turned out to be 1300 ng/mL, the AUC(0-t) turned out to be 3990 ng·h/mL, the AUC(0-inf) amounted to 4060 ng·h/mL and the Cmax amounted to 2890 ng/mL. For the same molecule, in series [2], the half-life was 3.42 ± 2.51 h and the Tmax was determined as 0.25 h.

As a reminder, the AUC(0-t) is exposure summed from dosing to a finite time, without extrapolation to infinity. Usually Cmax stands for the highest concentration seen after dosing. For orientation: Tmax means the time at which the peak concentration occurs.
